# Like-named read-outs stand apart in the source and are kept apart here.
# Experiments:
# [1] = tested on: B. cinerea Korea; format: cell-based, Botrytis cinerea; settings: for growth inhibition: Korea
# From the text: (§1) Next, we assessed the potential antifungal activity of At25 (ARACIN1) and At20 (ARACIN2) by an in vitro antifungal bioassay. Both propeptide and mature forms of At25 and At20 were produced by chemical synthesis (see Materials and Methods) and tested against A. brassicicola, B. cinerea B05-10 and B. cinerea Korea by means of a microtiter broth dilution assay (FIG. 9).
# (§2) 11. Antifungal Activity Assay
# (§3) Synthetic proAt25 peptide, mature At25 peptide, proat20 and mature At20 peptides were purchased from genscript (on the World Wide web at genscript.com). Stock solutions of 2×10^7 spores/ml of Botrytis cinerea B05-10, Botrytis cinerea Korea, Fusarium oxysporum and Alternaria brassicicola were diluted in ½ PDB (12 g/l Potato Dextrose Broth in water) to a final concentration of 2×10^4 spores/ml. After adding 196 μl aliquots of these spore dilutions to 4 μl of 2-fold dilution series of At25 in DMSO (starting from a 100 μg/ml stock solution) in microtiter plates, the plates were incubated on 23° C. for 48 h. DMSO was used as a negative control. Growth of the fungi was evaluated both microscopically and by measuring the OD600. Each fungus was tested in duplicate in the microtiter plates. Additionally, for Alternaria brassicicola this antifungal assay was repeated twice. For each assay, the average OD600 of each dilution and the DMSO control were compared using a t-test.
# [2] = tested on: B. cinerea B05-10; format: cell-based, Botrytis cinerea
# From the text: as §1, §2, §3
# [3] = tested on: A. brassicicola; format: cell-based, Alternaria brassicicola; settings: for 50% growth inhibitory concentration (IC50): 48 h
# From the text: as §1, §2, §3
substance,measurement,setting,value
H-GSCGAPISKYDFQVLAKRPPPCRRPRLENTEDVTHTTRP-OH (cysteine pairing not given here) [mature At20],antifungal activity in comparison with proAt20 (in words),[1]; B. cinerea Korea,remarkably increased
same,antifungal activity in comparison with proAt20 (in words),[2]; B. cinerea B05-10,remarkably increased
same,50% growth inhibitory concentration (IC50),[3],1.55 ± 0.11 µg/mL
same,reduction of IC50 value compared with the propeptide (proAt20),"[3]; A. brassicicola, mature At20 versus proAt20",86%
H-GSCGASIAEFNSSQILAKRAPPCRRPRLQNSEDVTHTTLP-OH (cysteine pairing not given here) [mature At25],50% growth inhibitory concentration (IC50),"[1]; B. cinerea Korea, 48 h, 23° C., OD600",2.03 ± 0.44 µg
same,growth inhibition,[1]; 10 μg mL^−1,94%
same,growth inhibition,"[2]; B05-10, 10 μg mL^−1",95.7%
same,50% growth inhibitory concentration (IC50),"[2]; B05-10, 48 h",3.05 ± 0.25 µg/mL
same,50% growth inhibitory concentration (IC50),[3],5.46 ± 0.57 µg/mL
same,concentration from which growth inhibition / statistically significant antifungal effect starts,[3]; A. brassicicola,1 µg/mL
NH2-RRSDTGPDISTPPSGSCGASIAE FNSSQILAKRAPPCRRPRLQNSEDVTHTTLP-COOH (H-RRSDTGPDISTPPSGSCGASIAEFNSSQILAKRAPPCRRPRLQNSEDVTHTTLP-OH; cysteine pairing not given here; listed as Arabidopsis thaliana) [proAt25],inhibitory activity (in words),"[1]; B. cinerea Korea, data not shown",no statistically significant inhibitory activities
same,inhibitory activity (in words),"[2]; B. cinerea B05-10, data not shown",no statistically significant inhibitory activities
same,inhibitory activity (in words),"[3]; A. brassicicola, data not shown",no statistically significant inhibitory activities
NH2-SIPDDDMGPAIYTPPSGSCGA PISKYDFQVLAKRPPPCRRPRLENTEDVTHTTRP-COOH [proAt20],concentration from which statistically significant antifungal effect starts,[1]; B. cinerea Korea,20 µg/mL
same,growth inhibition,[1]; 20 μg mL^−1,64.8%
same,growth inhibition,"[2]; B05-10, 20 μg mL^−1",62%
same,concentration from which statistically significant antifungal effect starts,[2]; B. cinerea B05-10,20 µg/mL
same,growth inhibition,[3]; 5 μg mL^−1,36.7%
same,50% growth inhibitory concentration (IC50),[3],11.32 ± 1.28 µg/mL
same,concentration from which growth inhibition / statistically significant antifungal effect starts,[3]; A. brassicicola,5 µg/mL
